{"source": "patent US20150175666A1", "about": "“PEPTIDES DERIVED FROM HIV GP41 FOR TREATING T-CELL MEDIATED PATHOLOGIES” (Yeda Research and Development Co. Ltd., priority 2012, published 2015)", "key": {"[1]": {"tested_on": "MOG35-55-specific murine line T cells (mMOG35-55 T-cells)"}, "[2]": {"target": "T1, core peptide of TMD from TCRα, CP (GLRILLLKV; SEQ ID NO: 14) (Mus musculus, UniProt P01849)", "T1 construct": "termed CP (GLRILLLKV); made in house", "test": "Fluorescent measurements of NBD-labeled core peptide of TCRα TMD in LUV", "assay_type": "binding", "details": "PC:Chol LUV, sequential doses", "description": "The fluorescence experiments were performed using NBD-labeled core peptides of TCRα (NBD-CP). Fluorescence spectra were obtained at room temperature, with excitation set at 467 nm (10 nm slit) and the emission scan at 500-600 nm (10 nm slits). In a typical experiment, the NBD-CP was first added from a stock solution in DMSO (final concentration of 0.1 μM and a maximum of 0.25% (v/v) DMSO) to a dispersion of PC:Chol LUV (200 μM) in PBS. This was followed by the addition of unlabeled HIV peptides in several sequential doses ranging from 2.5×10-3 μM to 0.4 μM. Fluorescence spectra were obtained before and after the addition of unlabeled HIV peptides. The fluorescence values were corrected by subtracting the corresponding blank (buffer with the same vesicle concentration).\nThe TCR complex's TMD helices mediate receptor activation through the interactions between basic and acidic residues. […] To investigate this possibility, we utilized NBD fluorescence, which is sensitive to the membrane surroundings; its emission intensity is increased via membrane insertion (Rapaport et al. Embo J. 1995; 14(22):5524-5531). […] Their initial fluorescence emission spectra were first measured in the presence of LUVs alone and then in the presence of several sequential doses of unlabeled peptide and its mutants (SEQ ID NO: 3, 9 and 10) (FIG. 5H)."}, "TCR (Jurkat T cells)": {"tested_on": "TCR (Jurkat T cells)", "sequence (P01848 whole entry)": "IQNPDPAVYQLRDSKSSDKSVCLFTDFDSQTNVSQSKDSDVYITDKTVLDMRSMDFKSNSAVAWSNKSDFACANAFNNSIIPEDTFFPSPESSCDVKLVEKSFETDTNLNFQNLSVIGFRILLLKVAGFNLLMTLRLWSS", "sequence (P01850 whole entry, further chain)": "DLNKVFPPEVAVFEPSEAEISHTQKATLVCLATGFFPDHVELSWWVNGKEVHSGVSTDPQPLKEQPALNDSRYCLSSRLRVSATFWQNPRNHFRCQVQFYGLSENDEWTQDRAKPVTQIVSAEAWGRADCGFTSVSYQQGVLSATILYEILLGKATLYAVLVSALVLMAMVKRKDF", "test": "Binding of Rho-labeled peptides to T-cell proteins (cross-linking SDS-PAGE, immunoprecipitation)", "parameters": "species or system human", "details": "for fluorescent bands of T-cell proteins bound to Rho-peptide (SDS-PAGE): 1 μM Rho-labeled peptide, formaldehyde cross-linked Jurkat lysate", "description": "Jurkat T cells (4×10^6) were incubated over night at 37° C. in the presence of 1 μM rhodamine-labeled peptide and lysed. The lysate was then incubated overnight with TCRα or GFP antibodies (2 μg) following 2 hours of incubation with protein G-plus Agarose beads (Santa Cruz Biotechnology Inc.). Next, the beads were washed with lysis buffer and boiled for 10 minutes; the protein supernatant was then run in a 12% SDS-PAGE. The presence of coimmunoprecipitated peptide was detected by the Typhoon 9400 variable mode imager.\nJurkat T cells (4×10^6) were incubated over night at 37° C. in the presence of 1 μM rhodamine-labeled pep6 (SEQ ID NO:3) and its mutant control peptide. Next, the cells were washed with PBS, crosslinked with 1% formaldehyde and after 10 minutes a 125 mM glycine solution was added to stop the reaction. Formaldehyde is a well known cross-linking agent used in the characterization of protein-protein interactions. The cells were lysed for 30 minutes on ice in a 300 μl lysis buffer followed by a sonication step. Insoluble material was removed by centrifugation at 3000×g for 4 min at 4° C. The proteins were resolved by 12% SDS-PAGE and proteins bound to the fluorescently labeled peptide were detected by the Typhoon 9400 variable mode imager (Amersham Biosciences). Excitation was set at 532 nm, and fluorescence emission was collected by a TAMRA filter (580 nm±30 nm) at 100 μm resolution and 600 volts. The protein loading amount was confirmed by Western blot to actin.\nTo investigate the interaction of the peptide with the TCR, 1 μM fluorescently labeled Rho-peptides were incubated with Jurkat T cells and then cross-linked with formaldehyde to maintain the interaction with their target proteins. The cross-linked T-cell lysate was resolved by SDS-PAGE and proteins bound to Rho-peptides were detected by the fluorescence of rhodamine (FIG. 5B). […] Western blot for actin was used to assure equal loading. […] Bound proteins were separated by SDS-PAGE and analyzed for the presence of the fluorescently-labeled peptides."}, "[3]": {"tested_on": "TCRα on antigen-stimulated mMOG35-55-specific line T cells", "sequence (P01849 whole entry)": "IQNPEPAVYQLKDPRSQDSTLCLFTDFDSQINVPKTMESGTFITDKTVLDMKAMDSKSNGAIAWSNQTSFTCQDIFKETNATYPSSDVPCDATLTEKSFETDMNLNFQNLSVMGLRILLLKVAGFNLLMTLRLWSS", "test": "Co-localization of Rho-labeled peptides with TCRα (confocal microscopy)", "assay_type": "cell-based, murine", "details": "activated T cells", "description": "FITC excitation was set at 488 nm, with the laser set at 5% power and fluorescence was recorded from 502-525 nm. Rhodamine excitation was set at 559 nm, with the laser set at 1% power and the fluorescence data were collected above 580 nm. Each cell was imaged for TCRα staining (denoted in green) and for peptide staining (denoted in red). Using ImageJ, the images (n=20) were set to binary color and the two revised pictures were used to create a new picture of only what merged between them. The merged picture was divided by the revised red picture to give the percentage of co-localization.\nCo-localization of the peptide with the TCR was assessed utilizing confocal microscopy (FIG. 5 D-E). Antigen-stimulated mMOG35-55-specific line T cells were probed with antibodies against TCRα followed by staining with secondary FITC-labeled antibodies (left column) and with the Rho-labeled peptide (SEQ ID NO: 3) (middle column). To evaluate the co-localization between the molecules, a merged image was produced (right column). […] As a control, AMP (SEQ ID NO: 13), a non-related antimicrobial peptide (Papo et al. J Biol Chem. 2005; 280(11):10378-10387), was labeled with rhodamine and its localization on T cells was detected."}, "[4]": {"tested_on": "T-cell lymphocytes derived from mice spleen cells", "test": "Binding of fluorescently labeled peptides to spleen-derived lymphocytes", "assay_type": "cell-based", "text": "Further, the T-cell binding affinity of peptides having the amino acid sequence of […] (SEQ ID NO:2 and 11; all L- and all D-amino acids, respectively) was examined. […] Spleen derived B cell lymphocytes were used as a control."}, "[5]": {"tested_on": "encephalitogenic MOG35-55 reactive T cells (LNCs)", "test": "Ex vivo recall response of lymph node cells from MOG35-55/CFA-immunized mice (proliferation, cytokine ELISA)", "assay_type": "in vivo, C57Bl/6J mice", "description": "(§1) Mice were subcutaneously immunized with 150 μg MOG35-55 emulsified in complete Freund's adjuvant (CFA) containing 150 μg Mt H37Ra with or without 0.5 mg/kg HIV peptides. Ten days post immunization, draining lymph nodes were removed and cultured in triplicate in the presence or absence of antigen, as previously described. The cultures were incubated for 72 h at 37° C. [3H] Thymidine ([…]) was added for an additional 16 h of incubation and the cultures were then harvested and counted using a Beta Counter. Pro-inflammatory cytokine analysis of IFNγ, IL-12, and TNFα were determined by ELISA, 24 h after cell activation, according to standard protocols from PharMingen (San Diego, Calif.), as described previously\nas §1, with “described. […]” for “described. The cultures were incubated for 72 h at 37° C. [3H]”, “described previously. […]” for “described previously”"}, "[6]": {"details": "MOG35-55 and APCs, peptides 2.5-20 μM"}}, "note": "pIC50: −log10 of the molar value. Where two headings read alike, the source gives them in different places. Square brackets hold non-standard residues; d marks the D form. Ends that are not written are not given here. rhodamine = not defined here"}
{"compound": "WNASWSNKSLEQIWNHT-NH2 [PEP 8, WNASWSNKSLEQIWNHT]", "values": [{"measurement": "pIC50", "setting": "[1]", "result": 4.82}]}
{"compound": "SNKSLEQIWNHTTWMGWG [SEQ ID NO: 10]", "values": [{"measurement": "fluorescence emission maxima of NBD-CP upon addition of unlabeled peptide", "setting": "[2]", "result": "only a slight increase"}]}
{"compound": "LQARILAVERYLKDQQL [ISU, LQARILAVERYLKDQQL, reference compound]", "values": [{"measurement": "pIC50", "setting": "[1]", "result": 4.82}]}
{"compound": "SNKSLEQIGNHTTGMEGD [SEQ ID NO: 9]", "values": [{"measurement": "fluorescence emission maxima of NBD-CP upon addition of unlabeled peptide", "setting": "[2]", "result": "only a slight increase"}, {"measurement": "fluorescent bands of T-cell proteins bound to Rho-peptide (SDS-PAGE)", "setting": "TCR (Jurkat T cells)", "result": "neither observed"}]}
{"compound": "Rho-AMP: AMP (SEQ ID NO: 13) labeled with rhodamine (KLKLLKLLKLLKLLK; also: rhodamine label, site not given here)", "values": [{"measurement": "co-localization with TCRα molecules", "setting": "[3]", "result": "found throughout the cell membrane"}]}
{"compound": "EQIWNHTTWMEWDREINN-NH2 [SHIFTED PEP 6, EQIWNHTTWMEWDREINN]", "values": [{"measurement": "pIC50", "setting": "[1]", "result": 5.00}, {"measurement": "inhibition of T-cell proliferation (potency in words)", "setting": "[1]; [6]", "result": "still exhibited potent activity"}]}
{"compound": "WNHTTWMEWD-NH2 [SHORT PEP 6, WNHTTWMEWD]", "values": [{"measurement": "binding to T-cell lymphocytes versus B cell lymphocytes", "setting": "[4]", "result": "preferably bind T-cell lymphocytes"}, {"measurement": "ex vivo recall proliferative response of LNCs to MOG35-55", "setting": "[5]; mouse, in vivo", "result": "down-regulation"}, {"measurement": "pIC50", "setting": "[1]", "result": 5.30}, {"measurement": "inhibition of T-cell proliferation (potency in words)", "setting": "[1]", "result": "still exhibited potent activity"}]}
{"compound": "CC[C@H](C)[C@H](NC(=O)[C@H](CCC(N)=O)NC(=O)[C@H](CCC(=O)O)NC(=O)[C@H](CC(C)C)NC(=O)[C@H](CO)NC(=O)[C@H](CCCCN)NC(=O)[C@H](CC(N)=O)NC(=O)[C@H](N)CO)C(=O)N[C@@H](Cc1c[nH]c2ccccc12)C(=O)N[C@@H](CC(N)=O)C(=O)N[C@@H](Cc1c[nH]cn1)C(=O)N[C@H](C(=O)N[C@H](C(=O)N[C@@H](Cc1c[nH]c2ccccc12)C(=O)N[C@@H](CCSC)C(=O)N[C@@H](CCC(=O)O)C(=O)N[C@@H](Cc1c[nH]c2ccccc12)C(=O)N[C@H](CC(=O)O)C(N)=O)[C@@H](C)O)[C@@H](C)O", "note": "[D-PEP 6, SNKSLEQIWNHTTWMEWD]", "values": [{"measurement": "pIC50", "setting": "[1]", "result": 5.52}]}
{"compound": "TTAVPWNASWSNKSLEQI-NH2 [PEP 1, TTAVPWNASWSNKSLEQI]", "values": [{"measurement": "pIC50", "setting": "[1]", "result": "< 4.40"}, {"measurement": "inhibition of T-cell proliferation (potency in words)", "setting": "[1]; [6]", "result": "not active"}]}
{"compound": "WNHTTWMEWD ([dW][dN][dH][dT][dT][dW][dM][dE][dW][dD]) [SEQ ID NO: 11]", "values": [{"measurement": "binding to T-cell lymphocytes versus B cell lymphocytes", "setting": "[4]", "result": "preferably bind T-cell lymphocytes"}, {"measurement": "ex vivo recall proliferative response of LNCs to MOG35-55", "setting": "[5]; 0.5 mg/kg peptide, day 10 post immunization", "result": "down-regulation"}]}
{"compound": "Rho-pep 6: rhodamine N-terminally labeled pep 6 (SEQ ID NO: 3) (rhodamine-SNKSLEQIWNHTTWMEWD-NH2; reading uncertain)", "values": [{"measurement": "fluorescent bands of T-cell proteins bound to Rho-peptide (SDS-PAGE)", "setting": "TCR (Jurkat T cells)", "result": "only one major fluorescent band"}, {"measurement": "coimmunoprecipitation with TCRα antibodies", "setting": "TCR (Jurkat T cells); Jurkat T cells, GFP antibody as control", "result": "coprecipitated with the TCR"}]}
